Laboratory results reported in ChEMBL document CHEMBL4715881, “ATB-targeted delivery of triptolide prodrugs for safer and more effective pancreatic cancer therapy” (Bioorg Med Chem Lett, 2021).
The source made the active and inactive calls. The calls are words filed in the database; no cut-off is given here.

Experiments:
[1] = Cytotoxicity against human HPDE cells assessed as reduction in cell viability by MTT assay; format: cell-based
[2] = system: ASPC1; assay: Cytotoxicity against human ASPC1 cells assessed as reduction in cell viability by MTT assay; format: functional, cell-based
[3] = system: MIA PaCa-2; assay: Cytotoxicity against human MIA PaCa-2 cells assessed as reduction in cell viability by MTT assay; format: functional, cell-based
[4] = Drug uptake in human ASPC1 cells; format: ADME, cell-based
[5] = Drug uptake in human MIA PaCa-2 cells in presence of lysine; format: ADME, cell-based
[6] = Drug uptake in human MIA PaCa-2 cells in presence of glutamate; format: ADME, cell-based
[7] = Drug uptake in human ASPC1 cells in presence of glycine; format: ADME, cell-based
[8] = Drug uptake in human MIA PaCa-2 cells assessed as Vmax measured at 10 mins; format: ADME, cell-based; details: mia paca-2, 10 min
[9] = Stability in rat plasma assessed as half life; format: ADME, cell-free
[10] = Drug uptake in human ASPC1 cells assessed as Vmax measured at 10 mins; format: ADME, cell-based; details: aspc1, 10 min
[11] = Drug uptake in human ASPC1 cells in presence of glutamate; format: ADME, cell-based
[12] = Drug uptake in human MIA PaCa-2 cells assessed as Km; format: ADME, cell-based
[13] = Drug uptake in human MIA PaCa-2 cells; format: ADME, cell-based
[14] = system: ASPC1; assay: Cytotoxicity against human ASPC1 cells assessed as reduction in cell viability pretreated with glycine for 30 mins by MTT assay; format: functional, cell-based
[15] = Drug uptake in human HPDE cells; format: ADME, cell-based
[16] = Stability in human ASPC1 cells homogenate assessed as half life; format: ADME, cell-based; details: ASPC1 cell homogenate
[17] = Stability in rat liver homogenate assessed as half life; format: ADME, tissue-based
[18] = Drug uptake in human ASPC1 cells in presence of lysine; format: ADME, cell-based
[19] = Drug uptake in human ASPC1 cells in presence of alpha-Methyl-D,L-tryptophan; format: ADME, cell-based
[20] = Drug uptake in human MIA PaCa-2 cells in presence of glycine; format: ADME, cell-based
[21] = system: MIA PaCa-2; assay: Cytotoxicity against human MIA PaCa-2 cells assessed as reduction in cell viability pretreated with glycine for 30 mins by MTT assay; format: functional, cell-based
[22] = Drug uptake in human ASPC1 cells assessed as Km; format: ADME, cell-based
[23] = Drug uptake in human MIA PaCa-2 cells in presence of alpha-Methyl-D,L-tryptophan; format: ADME, cell-based

| Structure (SMILES) | Activity [1] | Activity [2] | Activity [3] | Drug uptake [4] | Drug uptake [5] | Drug uptake [6] | Drug uptake [7] | Vmax [8] [nmol/mg] | half-life [9] [h] | Vmax [10] [nmol/mg] | Drug uptake [11] | Km [12] [µM] | Drug uptake [13] | Activity [14] | Drug uptake [15] | half-life [16] [h] | half-life [17] [h] | Drug uptake [18] | Drug uptake [19] | Drug uptake [20] | other results |
| --- | --- | --- | --- | --- | --- | --- | --- | --- | --- | --- | --- | --- | --- | --- | --- | --- | --- | --- | --- | --- | --- |
| CC(C)[C@]12O[C@H]1[C@@H]1O[C@]13[C@]1(O[C@H]1C[C@H]1C4=C(CC[C@@]13C)C(=O)OC4)[C@@H]2O [TRIPTOLIDE] | Toxic | Active | Active |  |  |  |  |  |  |  |  |  |  |  |  |  |  |  |  |  |  |
| CC(C)[C@]12O[C@H]1[C@@H]1O[C@]13[C@]1(O[C@H]1C[C@H]1C4=C(CC[C@@]13C)C(=O)OC4)[C@@H]2OC(=O)[C@@H](N)CCCCN | Non-Toxic | Active | Active | Active | Not Active | Active | Not Active | 3.516 | > 10 | 3.41 | Active | 124 | Active | inactive | Not Active | 8 | 6 | Not Active | Not Active | Not Active | Activity [21]: inactive; Km [22]: 121 µM; Drug uptake [23]: Not Active |
| CC(C)[C@H](N)C(=O)O[C@@H]1[C@@]2(C(C)C)O[C@H]2[C@@H]2O[C@]23[C@]12O[C@H]2C[C@H]1C2=C(CC[C@@]13C)C(=O)OC2 | Non-Toxic | Active | Active | Active | Not Active | Active | Not Active | 4.132 | > 10 | 4.391 | Active | 112 | Active | inactive | Not Active | 8 | 6 | Not Active | Not Active | Not Active | Activity [21]: inactive; Km [22]: 130 µM; Drug uptake [23]: Not Active |
| CC(C)[C@]12O[C@H]1[C@@H]1O[C@]13[C@]1(O[C@H]1C[C@H]1C4=C(CC[C@@]13C)C(=O)OC4)[C@@H]2OC(=O)[C@@H](N)Cc1c[nH]c2ccccc12 | Non-Toxic | Active | Active | Active | Not Active | Active | Not Active | 5.072 | > 10 | 5.874 | Active | 96 | Active | inactive | Not Active | 8 | 6 | Not Active | Not Active | Not Active | Activity [21]: inactive; Km [22]: 105 µM; Drug uptake [23]: Not Active |
